Key:
[1] = system: MDA-MB-231 human breast adenocarcinoma; experiment: Cell growth, resazurin assay, MDA-MB-231; assay type: cell-based; conditions: 96-h exposure (table title)
Protocol: (§1) Cells were cultured in 10 mL of Advanced DMEM/F12 (ADMEM/F12), supplemented with 5% FBS, 2 mM GlutaMAX, and 1% Penicillin-Streptomycin in 10 cm tissue culture plates. Cells were then plated into 96-well plates with about 2.5×10^3 cells per well. Cells were plated with 200 μL per well of ADMEM/F12 supplemented with 5% FBS, 2 mM GlutaMAX, and 1% Penicillin-Streptomycin. Cells were treated with dose responses of doxorubicin, oxaliplatin, or doxaliplatin upon plating. The cells were then cultured for 72 hours following drug treatment, and cell growth was measured by resazurin assay.

[2] = system: U2OS human osteosarcoma; experiment: Cell growth, resazurin assay, U2OS; assay type: cell-based; conditions: 96-h exposure (table title); read-out: IC50 U2OS (bone)
Protocol: as §1

[3] = system: A2780 human ovarian cancer cell line; experiment: Cell growth, resazurin assay, A2780; assay type: cell-based; conditions: A2780, 72-h exposure
Protocol: as §1

[4] = system: OVCAR8 human ovarian cancer cell line; experiment: Cell growth, resazurin assay, OVCAR8; assay type: cell-based; conditions: 72-h exposure
Protocol: as §1

[5] = Solubility and stability in organic solvents (observed during NMR); assay type: physicochemical
Protocol: To a stirred solution of K2PtCl4 (41.5 mg, 0.100 mmol) in water (30 mL), a solution of 9 bis(trifluoroacetic acid) salt (77.0 mg, 0.100 mmol) in water (9 mL) was added in one portion. Red precipitate formed immediately. The reaction was stirred at room temperature for 24 h. To the same solution was added AgNO3 aq. solution (0.10 M, 4.0 mL). The reaction was stirred at room temperature for 24 h. To this mixture was then added K2C2O4 aq. solution (0.20 M, 0.50 mL). The reaction was stirred at room temperature for 24 h. The reaction mixture was lyophilized together with a small amount of C18-reversed phase silica gel. […] The multiplicity of some ^1H NMR signals were not determined due to overlap. […] Due to the relatively low concentration of 12 in […], only part of the ^13C NMR signals were detected through ^13C-^1H correlation experiments. The ^13C NMR signals of Conformer A detected by ^1H-^13C HSQC and ^1H-^13C HMBC spectroscopy: ^13C{^1H} NMR (101 MHz, DMSO-d6) δ 16.98, 31.68, 34.80, 37.89, 55.85, 56.35, 64.07, 65.27, 66.70, 68.15, 98.84, 118.56, 118.86, 134.84, 159.78. The ^13C NMR signals of Conformer B detected by ^1H-^13C HSQC and ^1H-^13C HMBC spectroscopy: ^13C{^1H} NMR (101 MHz, DMSO-d6) δ 17.24, 32.01, 36.73, 37.27, 56.13, 56.31, 63.56, 64.07, 68.53, 69.85, 99.05, 118.68, 118.84, 135.99, 160.62. ^195Pt NMR (86 MHz, DMSO-d6) δ−1989 (br). […]

IC50 [1]: 0.11 µM
IC50 [2]: 0.052 µM
IC50 [3]: 0.016 µM
IC90 [3]: 0.38 µM
IC50 [4]: 0.14 ± 0.01 µM
Solubility in DMF ([5]; DMF): low solubility
Solubility in DMSO-d6 ([5]; DMSO-d6): relatively high solubility
Structure (SMILES): COc1cccc2c1C(=O)c1c(O)c3c(c(O)c1C2=O)CC(O)(C(=O)CO)CC3OC1CC(N)C(N)C(C)O1.O=C1[O][Pt][O]C1=O (stereo not drawn) [DoxPt, Doxaliplatin]
IC95 [3]: 0.68 µM
IC80 [4]: 0.37 ± 0.02 µM

Source: patent publication US11203608B2, “Platinum-containing compounds, and related compositions and uses thereof” (Massachusetts Institute of Technology, priority 2019, dated 2021)
